From US12692238B2, “Substituted pyridazinone herbicides” (FMC CORPORATION, priority 2020, dated 2026)

Key:
Format in all cases: in vivo
[1] = system: wheat (Triticum aestivum); experiment: Test A preemergence, wheat; conditions: 125 g ai/ha, 0 to 100 scale, 10 days
[2] = system: palmer amaranth (pigweed, palmer, Amaranthus palmeri); experiment: Test A preemergence, palmer amaranth; conditions: 0 to 100 scale, 10 days
From the text: (§1) Seeds of plant species selected from barnyardgrass (Echinochloa crus-galli), blackgrass (Alopecurus myosuroides), corn (Zea mays), foxtail, giant (giant foxtail, Setaria faberi), foxtail, green (green foxtail, Setaria viridis), goosegrass (Eleusine indica), kochia (Bassia scoparia), oat, wild (wild oat, Avena fatua), palmer amaranth (pigweed, palmer, Amaranthus palmeri), redroot pigweed (Amaranthus retroflexus), ragweed (common ragweed, Ambrosia artemisiifolia), ryegrass, Italian (Italian ryegrass, Lolium multiflorum), and soybean (Glycine max) were planted into a blend of loam soil and sand and treated preemergence with a directed soil spray using test chemicals formulated in a non-phytotoxic solvent mixture which included a surfactant.
(§2) At the same time, plants selected from these crop and weed species and also wheat (Triticum aestivum), galium (catchweed bedstraw, Galium aparine) and horseweed (Erigeron canadensis) were planted in pots containing the same blend of loam soil and sand and treated with postemergence applications of test chemicals formulated in the same manner. Plants ranged in height from 2 to 10 cm and were in the one- to two-leaf stage for the postemergence treatment. Treated plants and untreated controls were maintained in a greenhouse for 10 days, after which time all treated plants were compared to untreated controls and visually evaluated for injury. Plant response ratings, summarized in Table A, are based on a 0 to 100 scale where 0 is no effect and 100 is complete control. A dash (-) response means no test result.

[3] = system: oat, wild (wild oat, Avena fatua); experiment: Test A preemergence, oat, wild; conditions: 0 to 100 scale, 10 days
From the text: as §1, §2

[4] = system: ducksalad (Heteranthera limosa); experiment: Test B flooded paddy test, ducksalad; conditions: 250 g ai/ha, Flood; visually evaluated after 10 to 14 days
Outline: (§3)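 Compound added straight to paddy water of pots flooded to 3 cm, with 2-leaf-stage plants; water level held for the test. Injury scored visually against untreated controls after 10 to 14 greenhouse days, 0 (none) to 100 (complete control).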

[5] = system: ragweed (common ragweed, Ambrosia artemisiifolia); experiment: Test A preemergence, ragweed; conditions: 0 to 100 scale, 10 days
Outline: (§4)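 Test chemicals, formulated in a non-phytotoxic solvent mixture with surfactant, are applied either as a directed preemergence soil spray or postemergence to seedlings at the one- to two-leaf stage. Injury is scored visually after 10 days, 0 = no effect to 100 = complete control.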

rice (Oryza sativa) = experiment: Test B flooded paddy test, rice; conditions: 250 g ai/ha, Flood; visually evaluated after 10 to 14 days
Outline: as §3

[6] = system: foxtail, giant (giant foxtail, Setaria faberi); experiment: Test A postemergence, foxtail, giant; conditions: 10 days
From the text: as §1, §2

[7] = system: ryegrass, Italian (Italian ryegrass, Lolium multiflorum); experiment: Test A postemergence, ryegrass, Italian; conditions: 10 days
Outline: as §4

[8] = system: ryegrass, Italian (Italian ryegrass, Lolium multiflorum); experiment: Test A preemergence, ryegrass, Italian; conditions: 0 to 100 scale, 10 days
Outline: as §4

[9] = system: foxtail, giant (giant foxtail, Setaria faberi); experiment: Test A preemergence, foxtail, giant; conditions: 0 to 100 scale, 10 days
From the text: as §1, §2

[10] = system: goosegrass (Eleusine indica); experiment: Test A postemergence, goosegrass; conditions: 10 days
From the text: as §1, §2

[11] = system: sedge, umbrella (small-flower umbrella sedge, Cyperus difformis); experiment: Test B flooded paddy test, sedge, umbrella; conditions: 250 g ai/ha, Flood; visually evaluated after 10 to 14 days
Outline: as §3

soybean (Glycine max) [12] = experiment: Test A postemergence, soybean; conditions: 10 days
From the text: as §1, §2

[13] = system: goosegrass (Eleusine indica); experiment: Test A preemergence, goosegrass; conditions: 0 to 100 scale, 10 days
From the text: as §1, §2

[14] = system: wheat (Triticum aestivum); experiment: Test A postemergence, wheat; conditions: 10 days
Outline: as §4

[15] = system: barnyardgrass (Echinochloa crus-galli); experiment: Test B flooded paddy test, barnyardgrass; conditions: 250 g ai/ha, Flood; visually evaluated after 10 to 14 days
Outline: as §3

[16] = system: blackgrass (Alopecurus myosuroides); experiment: Test A postemergence, blackgrass; conditions: 10 days
Outline: as §4

[17] = system: oat, wild (wild oat, Avena fatua); experiment: Test A postemergence, oat, wild; conditions: 10 days
From the text: as §1, §2

[18] = system: galium (catchweed bedstraw, Galium aparine); experiment: Test A postemergence, galium; conditions: 10 days
Outline: as §4

corn (Zea mays) [19] = experiment: Test A postemergence, corn; conditions: 10 days
Outline: as §4

kochia (Bassia scoparia) [20] = experiment: Test A preemergence, kochia; conditions: 0 to 100 scale, 10 days
Outline: as §4

[21] = system: ragweed (common ragweed, Ambrosia artemisiifolia); experiment: Test A postemergence, ragweed; conditions: 10 days
Outline: as §4

[22] = system: palmer amaranth (pigweed, palmer, Amaranthus palmeri); experiment: Test A postemergence, palmer amaranth; conditions: 10 days
From the text: as §1, §2

soybean (Glycine max) [23] = experiment: Test A preemergence, soybean; conditions: 0 to 100 scale, 10 days
From the text: as §1, §2

corn (Zea mays) [24] = experiment: Test A preemergence, corn; conditions: 0 to 100 scale, 10 days
From the text: as §1, §2

kochia (Bassia scoparia) [25] = experiment: Test A postemergence, kochia; conditions: 10 days
Outline: as §4

[26] = system: horseweed (Erigeron canadensis); experiment: Test A postemergence, horseweed; conditions: 10 days
From the text: as §1, §2

[27] = system: blackgrass (Alopecurus myosuroides); experiment: Test A preemergence, blackgrass; conditions: 0 to 100 scale, 10 days
From the text: as §1, §2

[28] = 31 g ai/ha, postemergence, 0 to 100 scale (0 no effect, 100 complete control)
[29] = Postemergence, 125 g ai/ha, 0 to 100 scale

Cc1cc(C)c2cc3ccccc3c(-c3c(OCOC(=O)C(C)(C)C)c(Cl)nn(C)c3=O)c2c1 [Compound 20]
80: Plant response rating, Horseweed [26, 29]
60: Plant response rating, Pigweed, Palmer ([2]; 125 g ai/ha) | Plant response rating, Kochia (kochia (Bassia scoparia) [25]; [29])
40: Plant response rating, Kochia (kochia (Bassia scoparia) [25]; [28])
20: Plant response rating, Foxtail, Giant [6, 28] | Plant response rating, Foxtail, Giant ([9]; 125 g ai/ha) | Plant response rating, Corn (corn (Zea mays) [19]; [29])
70: Plant response rating, Ragweed [21, 28] | Plant response rating, Ragweed [21, 29]
30: Plant response rating, Pigweed, Palmer ([2]; 31 g ai/ha) | Plant response rating, Foxtail, Giant [6, 29] | Plant response rating, Goosegrass [10, 28] | Plant response rating, Goosegrass [10, 29]
25: Plant response rating, Barnyardgrass (0 to 100 scale where 0 is no effect and 100 is complete control) [15]
0: Plant response rating, Wheat [1] | Plant response rating, Oat, Wild ([3]; 31 g ai/ha) | Plant response rating, Oat, Wild ([3]; 125 g ai/ha) | Plant response rating, Ragweed ([5]; 31 g ai/ha) | Plant response rating, Rice (0 to 100 scale where 0 is no effect and 100 is complete control) (rice (Oryza sativa)) | Plant response rating, Ryegrass, Italian [7, 28] | Plant response rating, Ryegrass, Italian [7, 29] | Plant response rating, Ryegrass, Italian ([8]; 31 g ai/ha) | Plant response rating, Ryegrass, Italian ([8]; 125 g ai/ha) | Plant response rating, Foxtail, Giant ([9]; 31 g ai/ha) | Plant response rating, Soybean (soybean (Glycine max) [12]; [28]) | Plant response rating, Soybean (soybean (Glycine max) [12]; [29]) | Plant response rating, Goosegrass ([13]; 31 g ai/ha) | Plant response rating, Goosegrass ([13]; 125 g ai/ha) | Plant response rating, Wheat [14, 28] | Plant response rating, Wheat [14, 29] | Plant response rating, Blackgrass [16, 28] | Plant response rating, Blackgrass [16, 29] | Plant response rating, Oat, Wild [17, 28] | Plant response rating, Oat, Wild [17, 29] | Plant response rating, Kochia (kochia (Bassia scoparia) [20]; 31 g ai/ha) | Plant response rating, Kochia (kochia (Bassia scoparia) [20]; 125 g ai/ha) | Plant response rating, Soybean (soybean (Glycine max) [23]; 31 g ai/ha) | Plant response rating, Soybean (soybean (Glycine max) [23]; 125 g ai/ha) | Plant response rating, Corn (corn (Zea mays) [24]; 31 g ai/ha) | Plant response rating, Corn (corn (Zea mays) [24]; 125 g ai/ha) | Plant response rating, Blackgrass ([27]; 31 g ai/ha)
100: Plant response rating, Ducksalad (0 to 100 scale where 0 is no effect and 100 is complete control) [4]
10: Plant response rating, Corn (corn (Zea mays) [19]; [28]) | Plant response rating, Blackgrass ([27]; 125 g ai/ha)
50: Plant response rating, Ragweed ([5]; 125 g ai/ha) | Plant response rating, Galium [18, 28] | Plant response rating, Galium [18, 29] | Plant response rating, Pigweed, Palmer [22, 28] | Plant response rating, Pigweed, Palmer [22, 29]
90: Plant response rating, Sedge, Umbrella (0 to 100 scale where 0 is no effect and 100 is complete control) [11] | Plant response rating, Horseweed [26, 28]
